From PMC3899824 (Investigational new drugs, 2013)
*: point of attachment. Cbz = O=C(OCc1ccccc1)*; CH2F = FC*

Assays:
[1] = system: MM.1S multiple myeloma cells; settings: colcemid-treated, concentration not given
[2] = system: 8226/S multiple myeloma cells; settings: colcemid-treated, concentration not given
[3] = system: 8226/S multiple myeloma cells; assay: Apoptosis by AnnexinV/PI flow cytometry, 8226/S; format: cell-based, human
[4] = system: MM.1S multiple myeloma cells; assay: Apoptosis by AnnexinV/PI flow cytometry, MM.1S; format: cell-based, human
[5] = 5 μM caspase 8 inhibitor 30m before 200 nM PC-046 24h
[6] = 5 μM pan-caspase inhibitor 30m before 200 nM PC-046 24h

## CN[C@H]1CCc2cc(OC)c(OC)c(OC)c2-c2ccc(OC)c(=O)cc21 [colcemid, reference compound]
[1]
  % positive histone H3 cells, mean (SEM): 12.54 (0.73) %
[2]
  % positive histone H3 cells, mean (SEM): 39.40 (1.48) %

## Cbz-IETD-CH2F
[3]; [5]
  AnnexinV-positive cells: 25.1%
[4]; [5]
  AnnexinV-positive cells: 32.6%

## CC(C)[C@H](NC(=O)c1ccc2ccccc2n1)C(=O)N[C@@H](CC(=O)O)C(=O)COc1c(F)cccc1F [Q-VD-OPh]
[3]; [6]
  AnnexinV-positive cells: 13.5%
[4]; [6]
  AnnexinV-positive cells: 12.8%
